We go through seven molecules from patent US9949945B2, “3′ equatorial-fluorine-substituted neuraminidase inhibitor compounds, compositions and methods for the use thereof as anti-virals” (THE UNIVERSITY OF BRITISH COLUMBIA, priority 2012, dated 2018).

The target of series [1] is California H1N1 (A/California/07/09) neuraminidase (Influenza A virus, UniProt C3W6G3).
For series [2], the target named is Brisbane H1N1 (A/Brisbane/59/07) neuraminidase (Influenza A virus, UniProt D5F1R0).
Another series deals with B/Perth (B/Perth/211/01). The experiment in a line: microbe, parasite or virus in culture. It is filed as cell-based. The conditions noted are these: read-out: IC50 in the plaque size reduction assay, B/Perth.
For a further series, the system named is A/Fukui H3N2. The experiment in a line: microbe, parasite or virus in culture. The conditions noted are these: read-out: IC50 in the plaque size reduction assay, A/Fukui H3N2. It is filed as cell-based.
Series [3] concerns A/Mississippi H1N1 (A/Mississippi/3/01). The experiment in a line: microbe, parasite or virus in culture. Format: cell-based. The conditions noted are these: read-out: IC50 in the plaque size reduction assay, A/Mississippi H1N1.
For series [4], the target named is B/Perth wt (B/Perth/211/01) NA (Influenza B virus, UniProt Q3S340). It is filed as biochemical.
Series [5] has as its target Hong Kong H3N2 (A/HongKong/01/68) neuraminidase (Influenza A virus, UniProt Q91MA2). Nature of the series: biochemical.
The next series addresses Human Neu2 (Homo sapiens, UniProt Q9Y3R4). Nature of the series: Time-dependent inactivation of human Neu2. It is filed as biochemical. Conditions: 1 mM inactivator, 27° C., pH 5.6. How it is done:
All experiments were carried out in a 100 mM Na2HPO4/50 mM Citric acid buffer, pH 5.6. […] The data were analyzed using the program GraFit 4.0 (Erithacus software) (R. Leatherbarrow, Erithacus Software Ltd., 4th Edition, Staines, UK, (1990)). […] Residual enzyme activity was determined at appropriate time intervals by the addition of an aliquot of the inactivation mixture to an assay buffer solution containing 8 mM 4-trifluoromethylumbelliferyl sialic acid (CF3MUSA). The initial linear increase in absorbance at 400 nm was used as a measure of the enzyme activity. These initial rates at each time point were plotted as a function of time to obtain time-dependent exponential decay curves from which ki obs could be obtained using the equation: (rate)t=(rate)t=0e^([…])+offset IC50 Enzyme Inhibition Assays

A further series is described as follows: in vivo. The conditions noted are these: Balb/c, mouse, 1 mg/kg.
The conditions of series [6]: mouse, in vivo.
For series [7], the target named is B/Florida wt (B/Florida/4/2006) NA (Influenza B virus, UniProt J7JZT1). It is filed as biochemical.
Another series has as its target A/Fukui H3N2 wt NA (Influenza A virus, UniProt A0A0F6NYK2). Format: biochemical. Conditions: read-out: IC50 in the enzyme inhibition assay, A/Fukui H3N2.
Series [8] has as its target Sol Isl sH1N1 wt (A/Solomon Islands/3/2006) NA (Influenza A virus, UniProt B4URD9). Format: biochemical.
Series [9] deals with sH1N1/01 wt (A/Mississippi/3/01 H1N1) NA (Influenza A virus, UniProt Q3M0T6). It is filed as biochemical.
[10] abbreviates: read-out: IC50 in the enzyme inhibition assay, B/Perth.

Like-named read-outs stand apart in the source and are kept apart here.

Chain of Human Neu2 (Q9Y3R4 whole entry): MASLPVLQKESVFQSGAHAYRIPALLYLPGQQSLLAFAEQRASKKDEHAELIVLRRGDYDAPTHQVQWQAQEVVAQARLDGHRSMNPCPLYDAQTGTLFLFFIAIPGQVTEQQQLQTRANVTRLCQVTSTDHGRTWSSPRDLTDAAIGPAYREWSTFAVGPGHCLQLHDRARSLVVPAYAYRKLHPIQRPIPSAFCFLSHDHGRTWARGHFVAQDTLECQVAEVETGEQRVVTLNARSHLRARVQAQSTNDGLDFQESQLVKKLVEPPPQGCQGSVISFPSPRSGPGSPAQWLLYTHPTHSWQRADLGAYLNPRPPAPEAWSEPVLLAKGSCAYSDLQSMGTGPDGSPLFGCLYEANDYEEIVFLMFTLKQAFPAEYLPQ

For the molecule `CC(=O)NC1C(N)C(F)C(F)(C(=O)O)OC1[C@H](O)[C@H](O)CO` (stereo in doubt) [FeqAmDFSA, 5-Acetamido-2,4,5-trideoxy-4-amino-2α, 3β-difluoro-α-D-erythro-L-gluco-nonulo-pyranosonate], affinity in [1] was put at a Ki of 370 nM. Besides, the khyd in [1] and in series [2] was 0.0027 0.0059 0.0150 0.0140 0.0045 min^−1 each time. The “t1/2 (inac)” value in series [1] and in series [2] was 0.9 0.2 0.4 0.8 — min each time. The “t1/2 (reac)” value in series [1] and in [2] was 256 117 46 49 153 min throughout. Further, the IC50 in the series with B/Perth (B/Perth/211/01) (Influenza B virus, MDCK) is 10 to 100 nM; in the series on A/Fukui H3N2 (Influenza A virus, H3N2, MDCK) it was 1000 nM; in series [3] (Influenza A virus, H1N1, MDCK) it was 100 nM; in series [4] (setting [10]) it was 5.4 nM.

Consider `CC(=O)NC1C(NC(=N)N)C(F)C(F)(C(=O)O)OC1[C@H](O)[C@H](O)CO` (stereo in doubt) [FeqGuDFSA, 5-Acetamido-2,4,5-trideoxy-2α, 3β-difluoro-4-guanidino-α-D-erythro-L-gluco-nonulopyranosonate], for which the figures for the Ki in series [1] and in [5] were 100 nM and 150 nM, respectively. The khyd in series [1] and in series [2] was 0.0005 0.0015 0.001 0.0019 0.0005 min^−1 in each case. Also, the “t1/2 (inac)” value in series [1] and in series [2] was 0.3 0.5 0.9 0.5 0.8 min each time. Besides, the “t1/2 (reac)” value in series [1] and in series [2] was 1380 460 690 363 1380 min each time. In addition, the IC50 in the series on B/Perth (B/Perth/211/01) (Influenza B virus, MDCK) was found to be 1 nM; in the series on A/Fukui H3N2 (Influenza A virus, H3N2, MDCK), 10 nM; in series [3] (Influenza A virus, H1N1, MDCK) it was 1 nM; in series [4] (read-out: IC50 B/Perth wt), 4.5 nM; in series [4] (setting [10]), 4.5 nM. The “inactivation of Neu2” value on Human Neu2 is on record as “occurred slowly”.

As for `CC(=O)N[C@H]1C([C@H](O)[C@H](O)CO)O[C@@](F)(C(=O)O)C(F)[C@H]1O` (stereo partly drawn) [DFSA, 5-Acetamido-5-deoxy-3-fluoro-D-erythro-β-L-manno-2-nonulopyranosonic acid fluoride], the IC50 with B/Perth (B/Perth/211/01) (Influenza B virus, MDCK) was 1000 nM; in the series on A/Fukui H3N2 (Influenza A virus, H3N2, MDCK) it was 100000 nM; in series [3] (Influenza A virus, H1N1, MDCK), 1000 nM; in [4] (setting [10]) it was 70 nM.

For the molecule `CC(=O)N[C@@H]1C(N)C(F)[C@](F)(C(=O)O)OC1[C@H](O)[C@H](O)CO` (some centres unmarked) [FaxAmDFSA], the Ki is 4280 nM in series [1] and 240 nM in [5]. For the same molecule, the khyd in series [1] and in series [2] was 0.0001 0.0002 0.0001 0.0003 <0.0001 min^−1 throughout. Further, the “t1/2 (inac)” value in [1] and in [2] was 2.1 2.5 1.7 4.0 20.8 min each time. Moreover, the “t1/2 (reac)” value in series [1] and in series [2] was 6900 3450 6900 2300 >6900 min each time. Besides, the IC50 turned out to be 100 nM in the series with B/Perth (B/Perth/211/01) (Influenza B virus, MDCK); 1000 nM in the series on A/Fukui H3N2 (Influenza A virus, H3N2, MDCK); 100 nM in series [3] (Influenza A virus, H1N1, MDCK); 210 nM in series [4] (setting [10]).

Regarding `CC(=O)N[C@@H]1C(NC(=N)N)C(F)[C@](F)(C(=O)O)OC1[C@H](O)[C@H](O)CO` (some centres unmarked) [FaxGuDFSA], the values for the Ki in [1] and in [5] were 350 nM and 70 nM, respectively. Also, the khyd in series [1] and in series [2] was <0.0001 <0.0001 <0.0001 <0.0001 <0.000l min^−1 throughout. For the same molecule, the “t1/2 (inac)” value in series [1] and in series [2] was 7.4 9.2 20.9 6.8 20.2 min in each case. For the same molecule, the “t1/2 (reac)” value in [1] and in [2] was >6900 >6900 >6900 >6900 >6900 min throughout. This molecule yielded a bioavailability in “in vivo” of 92%. Besides, the IC50 with B/Perth (B/Perth/211/01) (Influenza B virus, MDCK) was 10 to 100 nM; in the series with A/Fukui H3N2 (Influenza A virus, H3N2, MDCK), 100 nM; in [3] (Influenza A virus, H1N1, MDCK), 10 nM; in [4] (read-out: IC50 B/Perth wt), 54 nM; in [4] (setting [10]), 54 nM. Moreover, at Human Neu2, the “inactivation of Neu2” value is listed as “occurred slowly”. For the same molecule, the “plasma half-life after intranasal administration vs IV injection” value in series [6] was “significantly longer”.

Turning to Oseltamivir, the figures for the IC50 (in [7]; at A/Fukui H3N2 wt NA) were 22.6 nM and 1.7 nM, respectively.

Take Zanamivir: the IC50 in series [8] was 2.2 nM; in series [9] (read-out: IC50 in the enzyme inhibition assay, A/Mississippi H1N1) it was 1.9 nM; in series [9] (read-out: IC50 sH1N1/01 wt), 1.9 nM; in the series on B/Perth (B/Perth/211/01) it was 10 nM; in the series on A/Fukui H3N2, 100 nM; in series [3], no more than 1 nM.
